Key:
p53 stabilization in FTE = assay: 3D human fimbriae culture: p53 immunohistochemistry; format: cell-based; settings: 2 and 7 days treatment, n=8
Protocol: (§1) Tissues were micro-dissected in alpha-MEM (Gibco, Carlsbad, Calif.) with 1% penicillin-streptomycin (Invitrogen, Carlsbad, Calif.). Individual fimbriae were separated into ˜50 mm^3 pieces. A portion of the tissue was fixed in 2% paraformaldehyde for use as an uncultured control. For optimization studies, fimbriae were cultured without matrix, encapsulated in 0.5% alginate, or encapsulated in 0.5% alginate with 1 mg/ml collagen and 0.1% fibronectin, as previously described for murine cultures (King et al. J Vis Exp. 2011.; herein incorporated by reference in its entirety). For subsequent treatments, 0.5% alginate encapsulated fimbriae were randomly assigned to treatment groups, with at least five fimbriae per condition, per patient, in a 24-well plate containing alpha-MEM and 1% penicillin-streptomycin. […] Prior to fixation, fimbriae were labeled with 10 μM bromodeoxyurine (BrdU, Sigma-Aldrich) for 24 hours to denote proliferating cells. Fimbriae cultures were fixed (2% paraformaldehyde) followed by dehydration in ethanol and xylene, and embedment in paraffin.
Sections (5 μm) were cut and stained via hematoxylin and eosin for morphological analysis or immunohistochemistry was performed to localize proteins of interest as previously described (King et al. Endocr Relat Cancer. 2011. 18:627-42.; herein incorporated by reference in its entirety). Slides were rehydrated through an ethanol gradient, prior to 0.1M sodium citrate retrieval and peroxidase block. […]
Immunohistochemistry images were taken via a Nikon E600 microscope, DXM1200 digital camera and NIS Elements software (Nikon Instruments, Melville, N.Y.). […] BrdU sections were imaged and epithelial cells (CK8 positive) were quantified for proliferation via ImageJ software (NIH, Bethesda, Md.). At least three fimbriae with 200 or more FTE were quantified for each treatment. Analysis of p53 staining was similar, with at least three fimbriae per treatment, per patient analyzed. Samples with p53 expression were quantified utilizing adjacent sections stained for the secretory cell marker PAX8 in a qualitative manner as described.

FGF2 = assay: ELISA of fallopian culture medium: FGF2; format: cell-based, human; settings: 10 nM E2, 7 days, n=6; not significantly altered
Protocol: as §1, with “Fimbriae cultures were fixed (2% paraformaldehyde) followed by dehydration in ethanol and xylene, and embedment in paraffin.” left out
IL8, VEGF-A, and FGF2 were detected in fallopian culture medium by enzyme-linked immunosorbent assay for human IL8 (EMD Millipore, Billerica, Mass., USA), VEGF-A (RayBiotech, GA, USA), or FGF2 (Abcam) respectively using the manufacturers' protocols. […] Results were normalized to total protein content as determined by western blotting and Ponceau staining to account for difference in tissue size between treatment groups. […]

In the case of `C[C@]12CC[C@@H]3c4ccc(O)cc4CC[C@H]3[C@@H]1CC[C@@H]2O` [E2, estradiol], the p53 stabilization (p53 stabilization in FTE) is reported as “no factor notably induced p53 stabilization” and the “FGF2 decrease compared to vehicle control” value (FGF2) is reported as 9%±8%.

Source: patent publication US11542475B2, “3D microphysiologic system” (Northwestern University, priority 2014, dated 2023)
